Active and inactive are the calls of the source. No cut-off for these calls is given here.
How the values were obtained:
Blood = assay: Ratio of compound IC50 to TXA IC50 in anti-fibrinolytic activity in healthy human fresh blood by plasma clot lysis; type: functional
Homo sapiens = species on record: Homo sapiens; assay: (§1) Inhibition of Plasminogen (unknown origin) binding to fibrin (unknown origin) interaction by surface plasmon resonance (SPR) analysis
[1] = as §1; parameters: species or system Homo sapiens
[2] = Volume of distribution at steady state in beagle dog at 1 mg/kg, iv measured upto 24 hrs by LC-MS/MS analysis; type: ADME, organism-based, Canis lupus familiaris; conditions: in vivo, read-out: Vdss
[3] = target: Tissue-type plasminogen activator (Rattus norvegicus) (UniProt P19637); assay: Inhibition of recombinant tissue plasminogen activator (rt-PA)-induced fibrinolysis in Sprague-Dawley rat fresh whole blood assessed as thrombus dissolution within 30 mins after reaching maximum amplitude (LY30) at > 3 uM by thromboelastography analysis; type: functional, tissue-based
Sequence of Tissue-type plasminogen activator (Rattus norvegicus) (P19637 whole entry): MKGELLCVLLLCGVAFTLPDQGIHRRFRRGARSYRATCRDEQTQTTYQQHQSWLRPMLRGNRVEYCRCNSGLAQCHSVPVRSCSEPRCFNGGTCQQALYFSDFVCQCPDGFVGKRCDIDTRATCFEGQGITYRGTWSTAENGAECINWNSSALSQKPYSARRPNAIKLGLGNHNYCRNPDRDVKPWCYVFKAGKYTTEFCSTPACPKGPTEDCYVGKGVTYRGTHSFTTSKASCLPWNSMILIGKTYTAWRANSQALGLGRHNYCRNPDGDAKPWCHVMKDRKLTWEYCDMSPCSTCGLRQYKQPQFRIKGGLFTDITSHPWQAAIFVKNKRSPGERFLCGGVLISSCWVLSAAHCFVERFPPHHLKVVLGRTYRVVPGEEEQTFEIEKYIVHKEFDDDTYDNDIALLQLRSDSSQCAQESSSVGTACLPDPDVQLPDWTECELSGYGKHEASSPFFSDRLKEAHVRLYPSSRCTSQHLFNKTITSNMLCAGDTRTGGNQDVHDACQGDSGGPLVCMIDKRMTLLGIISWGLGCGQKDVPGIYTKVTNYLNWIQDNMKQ

[4] = Clearance in beagle dog at 1 mg/kg, iv measured upto 24 hrs by LC-MS/MS analysis; type: ADME, organism-based, Canis lupus familiaris; conditions: in vivo
Rattus norvegicus [5] = assay: Hemostatic effect in rt-PA enhanced Sprague-Dawley rat tail bleeding model assessed as reduction in tail bleeding time at 5 mg/kg infused into right jugular vein; type: functional, organism-based; conditions: route iv
[6] = Half life in Sprague-Dawley rat at 1 mg/kg, iv measured upto 24 hrs by LC-MS/MS analysis; type: ADME, organism-based; conditions: in vivo
[7] = Volume of distribution at steady state in Sprague-Dawley rat at 1 mg/kg, iv measured upto 24 hrs by LC-MS/MS analysis; type: ADME, organism-based; conditions: in vivo, read-out: Vdss
[8] = AUC (0 to infinity) in Sprague-Dawley rat at 1 mg/kg, iv measured upto 24 hrs by LC-MS/MS analysis; type: ADME, organism-based; conditions: in vivo
Rattus norvegicus [9] = assay: Hemostatic effect in rt-PA enhanced Sprague-Dawley rat tail bleeding model assessed as reduction in tail bleeding time at 40 mg/kg infused into right jugular vein; type: functional, organism-based; conditions: route iv
[10] = target: Tissue-type plasminogen activator (Homo sapiens) (UniProt P00750); assay: Inhibition of recombinant human tissue plasminogen activator (rt-PA)-induced fibrinolysis in human fresh whole blood assessed as thrombus dissolution within 30 mins after reaching maximum amplitude (LY30) by thromboelastography analysis; type: functional, tissue-based
Sequence of Tissue-type plasminogen activator (Homo sapiens) (P00750 36-562 limits assumed): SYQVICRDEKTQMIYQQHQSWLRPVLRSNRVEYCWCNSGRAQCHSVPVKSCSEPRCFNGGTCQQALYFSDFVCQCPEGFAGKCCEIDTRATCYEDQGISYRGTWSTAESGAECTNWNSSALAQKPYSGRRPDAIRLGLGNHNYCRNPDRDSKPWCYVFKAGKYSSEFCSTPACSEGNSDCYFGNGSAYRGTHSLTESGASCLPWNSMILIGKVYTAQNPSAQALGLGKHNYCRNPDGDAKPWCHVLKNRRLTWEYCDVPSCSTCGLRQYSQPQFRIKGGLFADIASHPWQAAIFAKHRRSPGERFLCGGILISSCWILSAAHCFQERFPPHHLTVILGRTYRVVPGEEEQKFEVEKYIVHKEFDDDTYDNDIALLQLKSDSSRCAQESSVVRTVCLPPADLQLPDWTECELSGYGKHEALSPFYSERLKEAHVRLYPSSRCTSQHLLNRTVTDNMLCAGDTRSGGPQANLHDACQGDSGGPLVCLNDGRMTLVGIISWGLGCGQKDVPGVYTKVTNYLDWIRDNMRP

[11] = Clearance in Sprague-Dawley rat at 1 mg/kg, iv measured upto 24 hrs by LC-MS/MS analysis; type: ADME, organism-based; conditions: in vivo
[12] = AUC (0 to infinity) in beagle dog at 1 mg/kg, iv measured upto 24 hrs by LC-MS/MS analysis; type: ADME, organism-based, Canis lupus familiaris; conditions: in vivo
[13] = Half life in beagle dog at 1 mg/kg, iv measured upto 24 hrs by LC-MS/MS analysis; type: ADME, organism-based, Canis lupus familiaris; conditions: in vivo

Structure (SMILES) | Ratio IC50 (Blood) | other results
Cl.O=C(O)c1nc2c(s1)CCNC2 | >10 | –
CC(=O)NS(=O)(=O)c1ccc2c(n1)CCNC2.Cl | >10 | –
CCCC1Cc2nc(P(=O)(O)O)ccc2CN1.Cl (mixture of isomers) | 0.2 | –
CS(=O)(=O)NC(=O)c1ccc2c(n1)CCNC2.Cl | 2.06 | –
Cl.O=C(O)c1cnc2c(c1)CCNC2 | 2.16 | –
Cl.O=C(O)c1nc2c([nH]1)CCNC2 | >10 | –
Cl.O=P(O)(Cc1ccccc1)c1ccc2c(n1)CCNC2 | 1.29 | –
Cl.O=C(O)c1ccc2c(n1)CCNC2 | 0.25 | –
Cl.O=C(O)c1ccc2c(c1)CCNC2 | 0.63 | –
NC[C@H]1CC[C@H](C(=O)O)CC1 [TRANEXAMIC ACID] | – | IC90 (Homo sapiens): 78.7 µM; IC50 [1]: 5.33 µM; Vd [2]: 0.587 L/kg; inhibition [3]: Active; clearance [4]: 2.46 mL/min/kg; Activity (Rattus norvegicus [5]): Active; half-life [6]: 1.28 h; Vd [7]: 0.296 L/kg; AUC(0-inf) [8]: 2820 ng·h/mL; Activity (Rattus norvegicus [9]): Active; IC90 [10]: 10.1 µM; clearance [11]: 5.78 mL/min/kg; AUC(0-inf) [12]: 6680 ng·h/mL; half-life [13]: 5.34 h
Cl.O=S(=O)(O)c1ccc2c(n1)CCNC2 | 0.93 | –
NCCCCCC(=O)O | – | Activity (Rattus norvegicus [5]): inactive
CC(C)CCC1Cc2nc(P(=O)(O)O)ccc2CN1.Cl (mixture of isomers) | 0.09 | –
Cl.O=C(O)c1cc2c(cn1)CNCC2 | 4.33 | –
CCOP(=O)(O)c1ccc2c(n1)CCNC2.Cl | 0.29 | –
CC(C)(C)C[C@H]1C[C@@H](c2cc(=O)[nH]o2)CCN1.Cl | 0.15 | –
CCP(=O)(O)c1ccc2c(n1)CCNC2.Cl | 0.86 | –
Cl.O=P(O)(O)c1ccc2c(n1)C(N1CCOCC1)CNC2 (mixture of isomers) | 0.3 | –
CC(C)CC1Cc2nc(P(=O)(O)O)ccc2CN1.Cl (mixture of isomers) | 0.08 | –

From ChEMBL document CHEMBL6103656, “Discovery of BT-114143, a Novel and Potent Phosphoric Acid-Containing Small-Molecule Plasminogen Activation Inhibitor for Hyperfibrinolysis” (J Med Chem, 2025)
